Common to all, as to type: biochemical
The target of experiment [1] is catalytic domain of human gelatinase-A (MMP-2) (Homo sapiens, UniProt P08253). Put plainly: Enzymatic activity of the catalytic domain of human gelatinase-A (MMP-2), fluorogenic substrate. The protocol:
Determination of the Enzymatic Activity of the Catalytic Domain of Human Gelatinase-A (MMP-2)
Activation of the proenzyme: 2 parts by volume of proenzyme were incubated with 1 part by volume of APMA solution at 37° C. for 0.5 hours. The APMA solution was prepared from a 10 mmol/l p-aminophenylmercuric acetate solution in 0.1 mmol/l NaOH by dilution with 3 parts by volume of Tris/HCl buffer pH 7.5 (see below). The pH was adjusted to between 7.0 and 7.5 by adding 1 mmol/l HCl. After activation of the enzyme it was diluted with the Tris/HCl buffer to a concentration of 0.83 μg/ml.
(§1) The enzymic activity was measured by incubating 10 μl of enzyme solution with 10 μl of a 3% strength (v/v) buffered dimethyl sulfoxide solution (reaction 1) for 15 minutes. The enzyme inhibitor activity was measured by incubating 10 μl of enzyme solution with 10 μl of a 3% strength (v/v) buffered dimethyl sulfoxide solution which contained the enzyme inhibitor (reaction 2).
The enzymic reaction both in the case of reaction 1 and in the case of reaction 2 was followed after addition of 10 μl of a 3% strength (v/v) aqueous dimethyl sulfoxide solution which contained 0.3 mmol/l of the substrate by fluorescence spectroscopy (328 nm (extinction)/393 nm (emission)).
(§2) The enzymic activity has been presented as increase in extinction/minute. The effect of the inhibitor was calculated as percentage inhibition by the following formula: % inhibition=100−[(increase in extinction/minute in reaction 2)/(increase in extinction/minute in reaction 1)×100].
(§3) The IC50, which is the concentration of inhibitor which is necessary for 50% inhibition of the enzymic activity, was determined graphically by plotting the percentage inhibitions at various inhibitor concentrations.
The buffer solution contained 0.05% Brij (Sigma, Deisenhofen, Germany) and 0.1 mol/l Tris/HCl, 0.1 mol/l NaCl, 0.01 mol/l CaCl2 (pH=7.5). The enzyme solution contained 0.83 μg/ml of the enzyme domain. The substrate solution contained 0.3 mmol/l of the fluorogenic substrate (7-methoxycoumarin-4-yl)acetyl-Pro-Leu-Gly-Leu-3-(2′,4′-dinitrophenyl)-L-2,3-diaminopropionyl-Ala-Arg-NH2 (Bachem, Heidelberg, Germany).

For experiment [2], the target named is T1, catalytic domain of neutrophil collagenase (MMP-8) (Homo sapiens, UniProt P22894).
T1 construct: catalytic domain of human stromelysin (MMP-3) and of neutrophil collagenase (MMP-8); made in house
T1 sequence (P22894 100-262 limits assumed): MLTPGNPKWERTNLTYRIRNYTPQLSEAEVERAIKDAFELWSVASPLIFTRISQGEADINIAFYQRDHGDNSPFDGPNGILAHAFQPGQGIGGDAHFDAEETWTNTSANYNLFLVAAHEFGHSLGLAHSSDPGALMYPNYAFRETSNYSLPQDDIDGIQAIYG
Put plainly: Enzymatic activity of the catalytic domain of neutrophil collagenase (MMP-8), fluorogenic substrate. The protocol:
Preparation and determination of the enzymatic activity of the catalytic domain of human stromelysin (MMP-3) and of neutrophil collagenase (MMP-8). The two enzymes stromelysin (MMP-3) and neutrophil collagenase (MMP-8) were prepared by the method of Ye et al. (Biochemistry; 31 (1992) pages 11 231-11 235). The enzymic activity or the effect of the enzyme inhibitor was measured by incubating 10 μl of enzyme solution with 10 μl of a 3% strength (v/v) buffered dimethyl sulfoxide solution which contained the enzyme inhibitor where appropriate, for 15 minutes. After addition of 10 μl of a 3% strength (v/v) aqueous dimethyl sulfoxide solution which contained 1 mmol/l of the substrate, the enzymic reaction was followed by fluorescence spectroscopy (328 nm (ex)/393 nm(em)).
The enzymic activity is presented as increase in extinction/minute. The IC50 values listed in Table 2 were determined as the inhibitor concentrations leading in each case to 50% inhibition of the enzyme.
The buffer solution contained 0.05% Brij (Sigma, Deisenhofen, Germany) and 0.1 mol/l Tris/HCl, 0.1 mol/l NaCl, 0.01 mol/l CaCl2 and 0.1 mol/l piperazine-N,N′-bis[2-ethanesulfonic acid] (pH=7.5).
The MMP-3 enzyme solution contained 2.3 μg/ml and the MMP-8 enzyme solution 0.6 μg/ml of one of the enzyme domains prepared by the method of Ye et al. The substrate solution contained 1 mmol/l of the fluorogenic substrate (7-methoxycoumarin-4-yl)acetyl-Pro-Leu-Gly-Leu-3-(2′,4′-dinitrophenyl)-L-2,3-diaminopropionyl-Ala-Arg-NH2 (Bachem, Heidelberg, Germany).

For experiment [3], the target named is T2, catalytic domain of human collagenase-3 (MMP-13) (Homo sapiens, UniProt P45452).
T2 construct: Determination of the Enzymatic Activity of the Catalytic Domain of Human Collagenase-3 (MMP-13); purchased INVITEK, Berlin 30 100 803
In words: Enzymatic activity of the catalytic domain of human collagenase-3 (MMP-13), fluorogenic substrate. The protocol: Determination of the Enzymatic Activity of the Catalytic Domain of Human Collagenase-3 (MMP-13)
Activation of the proenzyme: 2 parts by volume of proenzyme were incubated with 1 part by volume of APMA solution at 37° C. for 1.5 hours. The APMA solution was prepared from a 10 mmol/l p-aminophenylmercuric acetate solution in 0.1 mmol/l NaOH by dilution with 3 parts by volume of Tris/HCl buffer pH 7.5 (see below). The pH was adjusted to between 7.0 and 7.5 by adding 1 mmol/l HCl. After activation of the enzyme it was diluted with the Tris/HCl buffer to a concentration of 1.67 μg/ml.
as §1
The enzymic reaction both in the case of reaction 1 and in the case of reaction 2 was followed after addition of 10 μl of a 3% strength (v/v) aqueous dimethyl sulfoxide solution which contained 0.075 mmol/l of the substrate by fluorescence spectroscopy (328 nm (extinction)/393 nm (emission)).
as §2, §3
The buffer solution contained 0.05% Brij (Sigma, Deisenhofen, Germany) and 0.1 mol/l Tris/HCl, 0.1 mol/l NaCl, 0.01 mol/l CaCl2 (pH=7.5). The enzyme solution contained 1.67 μg/ml of the enzyme domain. The substrate solution contained 0.075 mmol/l of the fluorogenic substrate (7-methoxycoumarin-4-yl)acetyl-Pro-Leu-Gly-Leu-3-(2′,4′-dinitrophenyl)-L-2,3-diaminopropionyl-Ala-Arg-NH2 (Bachem, Heidelberg, Germany).

Sequence of catalytic domain of human gelatinase-A (MMP-2) (P08253 110-465 limits assumed): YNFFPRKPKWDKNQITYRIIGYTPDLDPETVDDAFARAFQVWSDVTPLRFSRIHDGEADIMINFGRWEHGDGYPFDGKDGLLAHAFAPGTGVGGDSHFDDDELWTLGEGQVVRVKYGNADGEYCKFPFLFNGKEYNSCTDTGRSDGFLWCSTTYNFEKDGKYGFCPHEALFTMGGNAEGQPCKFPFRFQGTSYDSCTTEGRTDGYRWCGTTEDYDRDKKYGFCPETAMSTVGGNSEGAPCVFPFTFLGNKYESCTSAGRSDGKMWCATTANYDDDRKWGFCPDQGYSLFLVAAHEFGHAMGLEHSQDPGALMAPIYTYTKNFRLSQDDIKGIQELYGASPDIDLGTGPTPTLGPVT

One may read the IC50 as the point on the concentration scale where inhibition reaches its midpoint. Read a high IC50 as weaker potency. As to `O=C(O)C1C2CCOC2CCN1S(=O)(=O)c1ccc(-c2ccc(Cl)cc2)cc1` (stereo not drawn) [Example 6, 5-(4′-chlorobiphenyl-4-sulfonyl)octahydrofuro[3,2-c]pyridine-4-carboxylic acid], the IC50 in experiment [1] was found to be 38 nM; in experiment [2], 54 nM; in experiment [3] it was 290 nM.
Turning to `O=C(NO)C1C2CCOC2CCN1S(=O)(=O)c1ccc(-c2ccc(Cl)cc2)cc1` (stereo not drawn) [Example 7, 5-(4′-chlorobiphenyl-4-sulfonyl)octahydrofuro[3,2-c]pyridine-4-(N-hydroxy)-carboxamide], the IC50 came to 1.7 nM in experiment [1], 2.4 nM in experiment [2] and 1.8 nM in experiment [3].
Turning to `O=C(NO)[C@H]1[C@H]2CCO[C@H]2CCN1S(=O)(=O)c1ccc(-c2ccc(Cl)cc2)cc1` [Example 8], the IC50 in experiment [1] was 0.8 nM; in experiment [2], 1 nM; in experiment [3], 1 nM.
`O=C(NO)[C@@H]1[C@@H]2CCO[C@@H]2CCN1S(=O)(=O)c1ccc(-c2ccc(Cl)cc2)cc1` [Example 9]: the IC50 came out at 71 nM in experiment [1], 170 nM in experiment [2] and 58 nM in experiment [3].
In the same order, the values of `O=C(O)C1C2CCOC2CCN1S(=O)(=O)c1ccc(Oc2ccc(F)cc2)cc1` (stereo not drawn) [Example 10, 5-[4-(4-fluorophenoxy)benzenesulfonyl]octahydrofuro[3,2-c]pyridine-4-carboxylic acid] are 440 nM, 410 nM and 520 nM.
Turning to `O=C(NO)C1C2CCOC2CCN1S(=O)(=O)c1ccc(Oc2ccc(F)cc2)cc1` (stereo not drawn) [Example 11, 5-[4-(4-fluorophenoxy)benzenesulfonyl]octahydrofuro[3,2-c]pyridine-4-(N-hydroxy)-carboxamide], the IC50 in experiment [1] came out at 2 nM; in experiment [2] it was 6 nM; in experiment [3], 2 nM.
Consider `O=C(NO)[C@H]1[C@H]2CCO[C@H]2CCN1S(=O)(=O)c1ccc(Oc2ccc(F)cc2)cc1` [Example 12], for which the IC50 in experiment [1] is 0.8 nM; in experiment [2], 2 nM; in experiment [3] it was 0.7 nM.
The matching figures for `O=C(NO)[C@@H]1[C@@H]2CCO[C@@H]2CCN1S(=O)(=O)c1ccc(Oc2ccc(F)cc2)cc1` [Example 13]: 47 nM, 150 nM and 63 nM.
`O=C(NO)C1C2CCOC2CCN1S(=O)(=O)c1ccc(Oc2ccc(Cl)cc2)cc1` (stereo not drawn) [Example 18, 5-[4-(4-chlorophenoxy)benzenesulfonyl]octahydrofuro[3,2-c]pyridine-4-(N-hydroxy)-carboxamide]: the figures for the IC50 in experiment [1], in experiment [2] and in experiment [3] were 2 nM, 24 nM and 1 nM, respectively.
The matching figures for `N#Cc1ccc(Oc2ccc(S(=O)(=O)N3CC[C@@H]4OCC[C@@H]4[C@@H]3C(=O)NO)cc2)cc1` [Example 21]: 1 nM, 2 nM and 1 nM.
The matching figures for `CS(=O)(=O)c1ccc(Oc2ccc(S(=O)(=O)N3CC[C@@H]4OCC[C@@H]4[C@@H]3C(=O)NO)cc2)cc1` [Example 23]: 1 nM, 2 nM and 1 nM.

The values above are taken from patent US8039481B2, “Tetrahydrofuran derivatives for use as inhibitors of matrix metalloproteinases” (Sanofi-Aventis, priority 2005, dated 2011).
